PMC10650850, “Discovery, Structure–Activity Relationship and In Vitro Anticancer Activity of Small-Molecule Inhibitors of the Protein–Protein Interactions between AF9/ENL and AF4 or DOT1L” (Cancers, 2023)
Counter-ions that a name gives are not always drawn.

Target: T1, AF9-DOT1L interaction (Homo sapiens, UniProt P42568)
T1 construct: human AF9 AHD domain (475–568); made in house; host or cells: E. coli BL21(DE3)
T1 sequence (P42568 475-568): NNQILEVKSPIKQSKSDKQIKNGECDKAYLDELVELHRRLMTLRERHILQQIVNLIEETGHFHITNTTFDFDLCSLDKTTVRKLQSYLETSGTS
Assay: AlphaLisa assay, AF9-DOT1L interaction
Assay type: binding
Details: for IC50: MBP-protein 5 nM, biotinylated peptide 40 nM, 3 independent experiments with standard deviation, read-out: IC50 (μM) against the AF9-DOT1L interaction; for inhibition at 5 µM: read-out: % Inhibition at 5 μM against the AF9-DOT1L interaction
From the text: An AlphaLisa assay we previously developed was used for compound screening for inhibitors of the AF9-DOT1L interaction. The PPI takes the DOT1L-peptide coated donor beads and AF9 AHD coated acceptor beads together. The donor beads are illuminated with a laser beam (680 nm) to generate singlet oxygen radicals, which activate the adjacent acceptor beads to produce luminescence at 615 nm. When a compound can disrupt such PPI and separate the donor and acceptor beads, the highly unstable radicals are rapidly quenched by water without generating luminescence.
The cDNA for the human AF9 AHD domain (475–568) and ENL AHD domain (489–559) was synthesized (by Genscript, Piscataway, NJ, USA) and inserted into the pMAL c5X expression plasmid. The DOT1L peptide (Biotin-AHX-[…]) and AF4 peptide (Biotin-AHX-[…]) for the Alpha assay were purchased from Genscript.
Alpha assays were developed in our previous publication, using a Perkin-Elmer AlphaLisa anti-MBP kit, which contains streptavidin donor beads and anti-MBP acceptor beads. Briefly, the assay was performed using a MBP-protein (5 nM), a biotinylated peptide (40 nM), and increasing concentrations of a compound in 25 µL buffer (PBS with 0.5% BSA, pH 7.5) in 384-well plates according to the manufacturer’s protocol and measured with a Tecan SPARK microplate reader. Data were imported into Prism (version 5.0), and IC50 values from 3 independent experiments with standard deviation were obtained by using a standard dose-response curve fitting.

inhibition at 5 µM (compound at 5 μM) | Compound | further results
– | 5-(4-(Tert-butyl)phenyl)-N-(piperidin-4-ylmethyl)-benzo[b]thiophene-2-carboxamide hydrochloride [Compound 55] | % Inhibition at 5 μM against the AF9-DOT1L interaction (compound at 5 μM): 45%
– | O=C(NCC1CCNCC1)c1cc2ccc(-c3ccc(N4CCCCC4)cc3)cc2[nH]1 [Compound 1] | IC50: 3.3 ± 0.2 µM
– | O=C(NCC1CCNCC1)c1cc2ccc(-c3ccc(N4CCCC4)cc3)cc2[nH]1 [Compound 3, 6-(4-(1-Pyrrolinylphenyl)-N-(piperidin-4-ylmethyl)-1H-indole-2-carboxamide hydrochloride] | IC50: 2.8 ± 0.2 µM
31% | O=C(NCC1CCNCC1)c1cc2ccc(-c3ccc(C4CCCCC4)cc3)cc2[nH]1 [Compound 4, 6-(4-Cyclohexylphenyl)-N-(piperidin-4-ylmethyl)-1H-indole-2-carboxamide hydrochloride] | –
40% | O=C(NCC1CCNCC1)c1cc2ccc(-c3ccc(N4CCNCC4)cc3)cc2[nH]1 [Compound 5] | –
14% | O=C(NCC1CCNCC1)c1cc2ccc(-c3ccc(-c4ccsc4)cc3)cc2[nH]1 [Compound 6] | –
5.6% | O=C(NCC1CCNCC1)c1cc2ccc(-c3ccc(CCO)cc3)cc2[nH]1 [Compound 7] | –
37% | CC(=O)c1ccc(-c2ccc3cc(C(=O)NCC4CCNCC4)[nH]c3c2)cc1 [Compound 8, 6-(4-Acetophenyl)-N-(piperidin-4-ylmethyl)-1H-indole-2-carboxamide hydrochloride] | –
17% | CC(C)(C)c1cccc(-c2ccc3cc(C(=O)NCC4CCNCC4)[nH]c3c2)c1 [Compound 9, 6-(3-(tert-Butyl)phenyl)-N-(piperidin-4-ylmethyl)-1H-indole-2-carboxamide hydrochloride] | –
10% | O=C(NCC1CCNCC1)c1cc2ccc(-c3ccsc3)cc2[nH]1 [Compound 11] | Inhibitory activity against the AF9-DOT1L interaction (in words): almost inactive
29% | O=C(NCC1CCNCC1)c1c[nH]c2cc(-c3ccc(N4CCOCC4)cc3)ccc12 [Compound 13, 6-(4-(Morpholinophenyl)-N-(piperidin-4-ylmethyl)-1H-indole-3-carboxamide hydrochloride] | –
11% | NCc1ccc(-c2ccc3c(C(=O)NCC4CCNCC4)c[nH]c3c2)cc1 [Compound 14] | –
52% | O=C(NCC1CCNCC1)c1cc2cc(-c3ccc(N4CCOCC4)cc3)ccc2[nH]1 [Compound 17] | –
36% | O=C(NCC1CCNCC1)c1cc2cc(-c3ccc(N4CCNCC4)cc3)ccc2[nH]1 [Compound 18] | –
13% | CC(C)(C)c1ccc(-c2ccc3[nH]c(C(=O)NCC4CCNCC4)cc3c2)cc1 [Compound 19] | –
8% | N#Cc1ccc(-c2ccc3[nH]c(C(=O)NCC4CCNCC4)cc3c2)cc1F [Compound 20, 5-(3-Fluoro-4-cyanophenyl)-N-(piperidin-4-ylmethyl)-1H-indole-2-carboxamide hydrochloride] | –
0% | Cc1cc(C#N)ccc1-c1ccc2[nH]c(C(=O)NCC3CCNCC3)cc2c1 [Compound 21] | –
43% | O=C(NCC1CCNCC1)c1c[nH]c2ccc(-c3ccc(N4CCCCC4)cc3)cc12 [Compound 23, 5-(4-(Piperidin-1-yl)phenyl)-N-(piperidin-4-ylmethyl)-1H-indole-3-carboxamide hydrochloride] | –
40% | O=C(NCC1CCNCC1)c1cc2ccc(-c3ccc(N4CCOCC4)cc3)cc2s1 [Compound 26, 6-(4-(Morpholino)phenyl)-N-(piperidin-4-ylmethyl)-benzo[b]thiophene-2-carboxamide hydrochloride] | –
25% | CCN(CC)c1ccc(-c2ccc3cc(C(=O)NCC4CCNCC4)sc3c2)cc1 [Compound 27, 6-(4-(Diethylamino)phenyl)-N-(piperidin-4-ylmethyl)-benzo[b]thiophene-2-carboxamide hydrochloride] | –

inhibition at 5 µM (compound at 5 μM) | Compound | further results
45% | O=C(NCC1CCNCC1)c1cc2ccc(-c3ccc(CN4CCCCC4)cc3)cc2s1 [Compound 28, 6-(4-(Piperidin-1-ylmethyl)phenyl)-N-(piperidin-4-ylmethyl)-benzo[b]thiophene-2-carboxamide hydrochloride] | –
8% | O=C(NCC1CCNCC1)c1cc2ccc(-c3ccc(C(=O)N4CCCCC4)cc3)cc2s1 [Compound 29, 6-(4-(Piperidine-1-carbonyl)phenyl)-N-(piperidin-4-ylmethyl)-benzo[b]thiophene-2-carboxamide hydrochloride] | –
0% | O=C(NCC1CCNCC1)c1cc2ccc(-c3ccc(C(=O)N4CCCC4)cc3)cc2s1 [Compound 30] | –
14% | O=C(NCC1CCNCC1)c1cc2ccc(N3CCC(N4CCCCC4)CC3)cc2s1 [Compound 31] | –
20% | O=C(NCC1CCNCC1)c1cc2ccc(N3CCC(N4CCCC4)CC3)cc2s1 [Compound 32] | –
0% | Cl.O=C(NCC1CCNCC1)c1cc2ccc(-c3ccc(C(=O)N4CCC(N5CCCCC5)CC4)cc3)cc2s1 [Compound 33, 6-(4-(4-(Piperidin-1-yl)piperidin-1-carbonyl)phenyl)-N-(piperidin-4-ylmethyl)-benzo[b]thiophene-2-carboxamide hydrochloride] | Inhibitory activity against the AF9-DOT1L interaction (in words): inactive
5% | Cl.O=C(NCC1CCNCC1)c1cc2ccc(-c3ccc(C(=O)N4CCC(N5CCCC5)CC4)cc3)cc2s1 [Compound 34, 6-(4-(4-(Pyrrolidin-1-yl)piperidin-1-carbonyl)phenyl)-N-(piperidin-4-ylmethyl)-benzo[b]thiophene-2-carboxamide hydrochloride] | Inhibitory activity against the AF9-DOT1L interaction (in words): inactive
– | O=C(NCC1CCNCC1)c1cc2ccc(Nc3ccc(N4CCCCC4)cc3)cc2s1 [Compound 35, 6-((4-(Piperidin-1-yl)phenyl)amino)-N-(piperidin-4-ylmethyl)-benzo[b]thiophene-2-carboxamide hydrochloride] | IC50: 2.3 ± 0.2 µM
50% | O=C(NCC1CCNCC1)c1cc2ccc(Oc3ccc(Oc4ccc(Cl)cc4)cc3)cc2s1 [Compound 36, 6-(4-(4-Chlorophenoxyl)phenoxyl)-N-(piperidin-4-ylmethyl)-benzo[b]thiophene-2-carboxamide hydrochloride] | IC50: ~5 µM
0% | CC(=O)Nc1ccc(-c2ccc3cc(C(=O)NCC4CCNCC4)sc3c2)cc1 [Compound 38, 6-(4-(Acetamido)phenyl)-N-(piperidin-4-ylmethyl)-benzo[b]thiophene-2-carboxamide hydrochloride] | –
0% | O=C(NCC1CCNCC1)c1cc2ccc(-c3ccc(CO)cc3)cc2s1 [Compound 39, 6-(4-(Hydroxylmethyl)phenyl)-N-(piperidin-4-ylmethyl)-benzo[b]thiophene-2-carboxamide hydrochloride] | –
19% | CC(C)(C)c1ccc(-c2ccc3cc(C(=O)NCC4CCNCC4)sc3c2)cc1 [Compound 40, 6-(4-(Tert-butyl)phenyl)-N-(piperidin-4-ylmethyl)-benzo[b]thiophene-2-carboxamide hydrochloride] | –
~50% | N#CCc1ccc(-c2ccc3cc(C(=O)NCC4CCNCC4)sc3c2)cc1 [Compound 41, 6-(4-(Cyanomethyl)phenyl)-N-(piperidin-4-ylmethyl)-benzo[b]thiophene-2-carboxamide hydrochloride] | –
26% | N#Cc1ccc(-c2ccc3cc(C(=O)NCC4CCNCC4)sc3c2)cc1F [Compound 42, 6-(4-Cyano-3-fluorophenyl)-N-(piperidin-4-ylmethyl)-benzo[b]thiophene-2-carboxamide hydrochloride] | –
49% | CS(=O)(=O)c1ccc(-c2ccc3cc(C(=O)NCC4CCNCC4)sc3c2)cc1 [Compound 43, 6-(4-(Methylsulfonyl)phenyl)-N-(piperidin-4-ylmethyl)-benzo[b]thiophene-2-carboxamide hydrochloride] | –
14% | O=C(NCC1CCNCC1)c1cc2ccc(-c3ccc(OC(F)(F)F)cc3)cc2s1 [Compound 44, 6-(4-Trifluoromethoxylphenyl)-N-(piperidin-4-ylmethyl)-benzo[b]thiophene-2-carboxamide hydrochloride] | –
43% | COc1ccc(-c2ccc3cc(C(=O)NCC4CCNCC4)sc3c2)cc1 [Compound 45, 6-(4-Methoxylphenyl)-N-(piperidin-4-ylmethyl)-benzo[b]thiophene-2-carboxamide hydrochloride] | –
0% | O=C(NCC1CCNCC1)c1cc2ccc(-c3ccc(O)cc3)cc2s1 [Compound 46, 6-(4-Hydroxylphenyl)-N-(piperidin-4-ylmethyl)-benzo[b]thiophene-2-carboxamide hydrochloride] | –
47% | Cc1ccc(-c2ccc3cc(C(=O)NCC4CCNCC4)sc3c2)cc1 [Compound 47, 6-(4-Methylphenyl)-N-(piperidin-4-ylmethyl)-benzo[b]thiophene-2-carboxamide hydrochloride] | –
